# Biological target: 5'-AMP-activated protein kinase catalytic subunit alpha-2 (Homo sapiens) (UniProt P54646)
row,ΔTm,SMILES
1,-0.7 °C,CC(C)n1cnc2c(NCc3ccccc3)nc(NCCCO)nc21
2,2.1 °C,Cn1cc(C2=C(c3cn(CCCSC(=N)N)c4ccccc34)C(=O)NC2=O)c2ccccc21
3,0.4 °C,COC1=C2C[C@@H](C)C[C@H](OC)[C@H](O)[C@@H](C)/C=C(\C)[C@H](OC(N)=O)[C@@H](OC)/C=C\C=C(/C)C(=O)NC(=CC1=O)C2=O

# Biological target: Calcium/calmodulin-dependent protein kinase type II subunit alpha (Homo sapiens) (UniProt Q9UQM7)
# Sequence (Q9UQM7 whole entry): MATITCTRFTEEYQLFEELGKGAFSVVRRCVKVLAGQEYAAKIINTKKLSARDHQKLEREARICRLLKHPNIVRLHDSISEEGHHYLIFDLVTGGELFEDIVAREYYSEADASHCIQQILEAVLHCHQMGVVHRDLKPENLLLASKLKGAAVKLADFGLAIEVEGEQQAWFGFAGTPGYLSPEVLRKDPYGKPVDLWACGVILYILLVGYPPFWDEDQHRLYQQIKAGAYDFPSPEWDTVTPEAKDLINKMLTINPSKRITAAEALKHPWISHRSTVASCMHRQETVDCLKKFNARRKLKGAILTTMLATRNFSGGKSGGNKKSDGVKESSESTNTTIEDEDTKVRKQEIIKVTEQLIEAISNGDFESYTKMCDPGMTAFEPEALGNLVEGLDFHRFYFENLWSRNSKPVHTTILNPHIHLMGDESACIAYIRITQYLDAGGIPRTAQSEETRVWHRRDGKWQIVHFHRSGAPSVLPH
row,ΔTm,SMILES
1,1.8 °C,CC(C)n1cnc2c(NCc3ccccc3)nc(NCCCO)nc21
2,4.2 °C,Cn1cc(C2=C(c3cn(CCCSC(=N)N)c4ccccc34)C(=O)NC2=O)c2ccccc21
3,-0.1 °C,COC1=C2C[C@@H](C)C[C@H](OC)[C@H](O)[C@@H](C)/C=C(\C)[C@H](OC(N)=O)[C@@H](OC)/C=C\C=C(/C)C(=O)NC(=CC1=O)C2=O

# Biological target: T1, Calcium/calmodulin-dependent protein kinase type IV (Homo sapiens) (UniProt Q16566)
# T1 sequence (whole entry): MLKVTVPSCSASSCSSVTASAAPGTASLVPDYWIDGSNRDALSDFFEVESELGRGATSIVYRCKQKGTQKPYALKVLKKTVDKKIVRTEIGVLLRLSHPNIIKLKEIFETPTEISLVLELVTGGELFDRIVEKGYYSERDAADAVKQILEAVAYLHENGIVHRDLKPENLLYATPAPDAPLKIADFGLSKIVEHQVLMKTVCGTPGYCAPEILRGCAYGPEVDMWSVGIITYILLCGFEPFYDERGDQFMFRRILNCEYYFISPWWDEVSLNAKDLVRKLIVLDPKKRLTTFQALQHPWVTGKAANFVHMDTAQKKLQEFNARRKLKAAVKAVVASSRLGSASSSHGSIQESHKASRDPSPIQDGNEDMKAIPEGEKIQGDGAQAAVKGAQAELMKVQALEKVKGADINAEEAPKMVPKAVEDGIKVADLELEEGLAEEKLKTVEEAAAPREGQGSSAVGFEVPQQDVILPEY
row,ΔTm,SMILES
1,0.4 °C,CC(C)n1cnc2c(NCc3ccccc3)nc(NCCCO)nc21
2,3.2 °C,Cn1cc(C2=C(c3cn(CCCSC(=N)N)c4ccccc34)C(=O)NC2=O)c2ccccc21
3,0 °C,COC1=C2C[C@@H](C)C[C@H](OC)[C@H](O)[C@@H](C)/C=C(\C)[C@H](OC(N)=O)[C@@H](OC)/C=C\C=C(/C)C(=O)NC(=CC1=O)C2=O

# Biological target: Calcium/calmodulin-dependent protein kinase kinase 2 (Homo sapiens, UniProt Q96RR4)
# Sequence (Q96RR4 2-588 limits assumed): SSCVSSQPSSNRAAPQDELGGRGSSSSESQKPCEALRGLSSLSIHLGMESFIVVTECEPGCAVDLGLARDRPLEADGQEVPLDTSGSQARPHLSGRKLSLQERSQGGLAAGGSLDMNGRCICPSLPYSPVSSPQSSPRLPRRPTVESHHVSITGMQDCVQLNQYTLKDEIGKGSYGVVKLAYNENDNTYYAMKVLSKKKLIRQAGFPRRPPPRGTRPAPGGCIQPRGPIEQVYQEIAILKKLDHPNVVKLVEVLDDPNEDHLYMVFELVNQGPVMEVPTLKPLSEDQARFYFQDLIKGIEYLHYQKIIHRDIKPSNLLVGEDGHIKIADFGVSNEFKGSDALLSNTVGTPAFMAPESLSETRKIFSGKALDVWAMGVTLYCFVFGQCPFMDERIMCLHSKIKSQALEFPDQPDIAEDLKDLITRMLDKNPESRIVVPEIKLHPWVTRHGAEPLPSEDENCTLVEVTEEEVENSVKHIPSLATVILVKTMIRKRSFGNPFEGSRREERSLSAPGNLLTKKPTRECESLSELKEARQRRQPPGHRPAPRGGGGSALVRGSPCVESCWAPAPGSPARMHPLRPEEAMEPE
row,ΔTm,SMILES
1,2 °C,CC(C)n1cnc2c(NCc3ccccc3)nc(NCCCO)nc21
2,0.1 °C,Cn1cc(C2=C(c3cn(CCCSC(=N)N)c4ccccc34)C(=O)NC2=O)c2ccccc21
3,-0.6 °C,COC1=C2C[C@@H](C)C[C@H](OC)[C@H](O)[C@@H](C)/C=C(\C)[C@H](OC(N)=O)[C@@H](OC)/C=C\C=C(/C)C(=O)NC(=CC1=O)C2=O

# Biological target: Serine/threonine-protein kinase Chk2 (Homo sapiens, UniProt O96017)
row,ΔTm,SMILES
1,0.5 °C,CC(C)n1cnc2c(NCc3ccccc3)nc(NCCCO)nc21
2,7 °C,Cn1cc(C2=C(c3cn(CCCSC(=N)N)c4ccccc34)C(=O)NC2=O)c2ccccc21
3,0.2 °C,COC1=C2C[C@@H](C)C[C@H](OC)[C@H](O)[C@@H](C)/C=C(\C)[C@H](OC(N)=O)[C@@H](OC)/C=C\C=C(/C)C(=O)NC(=CC1=O)C2=O

# Biological target: Dual specificity protein kinase CLK1 (Homo sapiens) (UniProt P49759)
# Sequence (P49759 whole entry, looked up): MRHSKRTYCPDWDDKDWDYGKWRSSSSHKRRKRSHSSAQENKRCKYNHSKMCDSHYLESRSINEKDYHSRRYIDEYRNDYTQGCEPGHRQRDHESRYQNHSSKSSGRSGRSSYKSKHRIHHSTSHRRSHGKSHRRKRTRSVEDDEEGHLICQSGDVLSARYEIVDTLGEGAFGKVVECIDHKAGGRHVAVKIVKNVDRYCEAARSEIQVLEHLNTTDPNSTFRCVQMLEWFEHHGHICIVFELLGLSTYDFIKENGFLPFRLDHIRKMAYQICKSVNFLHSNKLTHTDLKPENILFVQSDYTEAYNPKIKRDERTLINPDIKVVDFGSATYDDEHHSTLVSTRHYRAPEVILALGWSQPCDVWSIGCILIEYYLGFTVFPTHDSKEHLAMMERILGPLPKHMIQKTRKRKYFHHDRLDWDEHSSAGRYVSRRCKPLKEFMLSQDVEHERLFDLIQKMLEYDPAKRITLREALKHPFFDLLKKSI
row,ΔTm,SMILES
1,2.6 °C,CC(C)n1cnc2c(NCc3ccccc3)nc(NCCCO)nc21
2,9.6 °C,Cn1cc(C2=C(c3cn(CCCSC(=N)N)c4ccccc34)C(=O)NC2=O)c2ccccc21
3,0.6 °C,COC1=C2C[C@@H](C)C[C@H](OC)[C@H](O)[C@@H](C)/C=C(\C)[C@H](OC(N)=O)[C@@H](OC)/C=C\C=C(/C)C(=O)NC(=CC1=O)C2=O

# Biological target: Casein kinase I isoform gamma-2 (Homo sapiens) (UniProt P78368)
# Sequence (P78368 whole entry, looked up, canonical isoform): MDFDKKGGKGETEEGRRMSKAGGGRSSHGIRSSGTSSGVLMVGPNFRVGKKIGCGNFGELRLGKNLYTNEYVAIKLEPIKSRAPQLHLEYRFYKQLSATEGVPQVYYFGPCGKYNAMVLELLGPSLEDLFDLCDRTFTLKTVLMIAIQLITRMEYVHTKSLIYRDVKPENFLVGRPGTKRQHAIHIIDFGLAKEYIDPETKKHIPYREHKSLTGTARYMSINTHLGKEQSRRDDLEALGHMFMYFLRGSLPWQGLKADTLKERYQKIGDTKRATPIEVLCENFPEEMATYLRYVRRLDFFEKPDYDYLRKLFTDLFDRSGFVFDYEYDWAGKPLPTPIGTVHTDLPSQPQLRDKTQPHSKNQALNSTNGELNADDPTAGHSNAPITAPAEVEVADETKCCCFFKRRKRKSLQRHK
row,ΔTm,SMILES
1,1.1 °C,CC(C)n1cnc2c(NCc3ccccc3)nc(NCCCO)nc21
2,0.7 °C,Cn1cc(C2=C(c3cn(CCCSC(=N)N)c4ccccc34)C(=O)NC2=O)c2ccccc21
3,0.4 °C,COC1=C2C[C@@H](C)C[C@H](OC)[C@H](O)[C@@H](C)/C=C(\C)[C@H](OC(N)=O)[C@@H](OC)/C=C\C=C(/C)C(=O)NC(=CC1=O)C2=O

# Biological target: Casein kinase I isoform gamma-3 (Homo sapiens) (UniProt Q9Y6M4)
row,ΔTm,SMILES
1,1.1 °C,CC(C)n1cnc2c(NCc3ccccc3)nc(NCCCO)nc21
2,1 °C,Cn1cc(C2=C(c3cn(CCCSC(=N)N)c4ccccc34)C(=O)NC2=O)c2ccccc21
3,0.4 °C,COC1=C2C[C@@H](C)C[C@H](OC)[C@H](O)[C@@H](C)/C=C(\C)[C@H](OC(N)=O)[C@@H](OC)/C=C\C=C(/C)C(=O)NC(=CC1=O)C2=O

# Biological target: Tyrosine-protein kinase JAK1 (Homo sapiens) (UniProt P23458)
row,ΔTm,SMILES
1,0.4 °C,CC(C)n1cnc2c(NCc3ccccc3)nc(NCCCO)nc21
2,0 °C,Cn1cc(C2=C(c3cn(CCCSC(=N)N)c4ccccc34)C(=O)NC2=O)c2ccccc21
3,-0.5 °C,COC1=C2C[C@@H](C)C[C@H](OC)[C@H](O)[C@@H](C)/C=C(\C)[C@H](OC(N)=O)[C@@H](OC)/C=C\C=C(/C)C(=O)NC(=CC1=O)C2=O

# Biological target: T2, Dual specificity mitogen-activated protein kinase kinase 6 (Homo sapiens) (UniProt P52564)
# T2 sequence (whole entry): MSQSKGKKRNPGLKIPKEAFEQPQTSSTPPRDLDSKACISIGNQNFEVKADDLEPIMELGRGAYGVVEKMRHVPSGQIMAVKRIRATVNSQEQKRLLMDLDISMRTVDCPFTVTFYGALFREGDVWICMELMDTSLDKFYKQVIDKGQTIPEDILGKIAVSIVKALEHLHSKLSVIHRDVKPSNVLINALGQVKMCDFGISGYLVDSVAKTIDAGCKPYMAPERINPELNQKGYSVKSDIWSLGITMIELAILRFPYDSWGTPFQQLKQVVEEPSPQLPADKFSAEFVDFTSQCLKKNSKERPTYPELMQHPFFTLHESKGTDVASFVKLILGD
row,ΔTm,SMILES
1,0 °C,CC(C)n1cnc2c(NCc3ccccc3)nc(NCCCO)nc21
2,0.9 °C,Cn1cc(C2=C(c3cn(CCCSC(=N)N)c4ccccc34)C(=O)NC2=O)c2ccccc21
3,0 °C,COC1=C2C[C@@H](C)C[C@H](OC)[C@H](O)[C@@H](C)/C=C(\C)[C@H](OC(N)=O)[C@@H](OC)/C=C\C=C(/C)C(=O)NC(=CC1=O)C2=O

# Biological target: Mitogen-activated protein kinase 3 (Homo sapiens, UniProt P27361)
# Sequence (P27361 whole entry): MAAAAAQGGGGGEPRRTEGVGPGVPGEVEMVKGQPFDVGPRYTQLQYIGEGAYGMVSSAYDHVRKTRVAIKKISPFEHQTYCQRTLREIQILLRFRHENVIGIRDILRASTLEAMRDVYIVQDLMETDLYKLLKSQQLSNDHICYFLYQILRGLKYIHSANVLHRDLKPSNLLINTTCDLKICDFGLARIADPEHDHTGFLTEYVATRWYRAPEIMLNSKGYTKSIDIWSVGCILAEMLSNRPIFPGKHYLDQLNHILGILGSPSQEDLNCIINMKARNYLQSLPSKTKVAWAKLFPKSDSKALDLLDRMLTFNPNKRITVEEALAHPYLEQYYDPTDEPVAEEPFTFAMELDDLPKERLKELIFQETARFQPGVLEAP
row,ΔTm,SMILES
1,0.4 °C,CC(C)n1cnc2c(NCc3ccccc3)nc(NCCCO)nc21
2,0.7 °C,Cn1cc(C2=C(c3cn(CCCSC(=N)N)c4ccccc34)C(=O)NC2=O)c2ccccc21
3,0.1 °C,COC1=C2C[C@@H](C)C[C@H](OC)[C@H](O)[C@@H](C)/C=C(\C)[C@H](OC(N)=O)[C@@H](OC)/C=C\C=C(/C)C(=O)NC(=CC1=O)C2=O

# Biological target: Serine/threonine-protein kinase Nek6 (Homo sapiens) (UniProt Q9HC98)
row,ΔTm,SMILES
1,0.4 °C,CC(C)n1cnc2c(NCc3ccccc3)nc(NCCCO)nc21
2,-1 °C,Cn1cc(C2=C(c3cn(CCCSC(=N)N)c4ccccc34)C(=O)NC2=O)c2ccccc21
3,-0.2 °C,COC1=C2C[C@@H](C)C[C@H](OC)[C@H](O)[C@@H](C)/C=C(\C)[C@H](OC(N)=O)[C@@H](OC)/C=C\C=C(/C)C(=O)NC(=CC1=O)C2=O

# Biological target: T3, 3-phosphoinositide-dependent protein kinase 1 (Homo sapiens) (UniProt O15530)
# T3 sequence (whole entry): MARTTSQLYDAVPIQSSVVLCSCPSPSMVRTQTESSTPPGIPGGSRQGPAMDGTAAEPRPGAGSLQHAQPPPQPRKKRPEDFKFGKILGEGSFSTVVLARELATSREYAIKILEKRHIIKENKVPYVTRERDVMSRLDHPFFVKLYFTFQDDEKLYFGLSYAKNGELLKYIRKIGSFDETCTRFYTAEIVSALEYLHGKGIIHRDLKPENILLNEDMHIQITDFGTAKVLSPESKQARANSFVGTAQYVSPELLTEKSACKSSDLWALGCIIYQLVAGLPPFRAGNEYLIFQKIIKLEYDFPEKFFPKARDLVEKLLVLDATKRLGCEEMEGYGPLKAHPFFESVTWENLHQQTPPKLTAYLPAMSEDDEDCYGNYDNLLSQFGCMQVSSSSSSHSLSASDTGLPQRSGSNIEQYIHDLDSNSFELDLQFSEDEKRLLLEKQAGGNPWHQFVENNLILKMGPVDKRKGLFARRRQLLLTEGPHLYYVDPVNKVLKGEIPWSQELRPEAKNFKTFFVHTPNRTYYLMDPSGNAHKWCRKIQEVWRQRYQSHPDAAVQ
row,ΔTm,SMILES
1,0.1 °C,CC(C)n1cnc2c(NCc3ccccc3)nc(NCCCO)nc21
2,0.1 °C,Cn1cc(C2=C(c3cn(CCCSC(=N)N)c4ccccc34)C(=O)NC2=O)c2ccccc21
3,0 °C,COC1=C2C[C@@H](C)C[C@H](OC)[C@H](O)[C@@H](C)/C=C(\C)[C@H](OC(N)=O)[C@@H](OC)/C=C\C=C(/C)C(=O)NC(=CC1=O)C2=O

# Biological target: cAMP-dependent protein kinase catalytic subunit alpha (Homo sapiens) (UniProt P17612)
row,ΔTm,SMILES
1,0.3 °C,CC(C)n1cnc2c(NCc3ccccc3)nc(NCCCO)nc21
2,4.4 °C,Cn1cc(C2=C(c3cn(CCCSC(=N)N)c4ccccc34)C(=O)NC2=O)c2ccccc21
3,1.1 °C,COC1=C2C[C@@H](C)C[C@H](OC)[C@H](O)[C@@H](C)/C=C(\C)[C@H](OC(N)=O)[C@@H](OC)/C=C\C=C(/C)C(=O)NC(=CC1=O)C2=O

# Biological target: Serine/threonine-protein kinase RIO2 (Homo sapiens) (UniProt Q9BVS4)
# Sequence (Q9BVS4 whole entry, looked up): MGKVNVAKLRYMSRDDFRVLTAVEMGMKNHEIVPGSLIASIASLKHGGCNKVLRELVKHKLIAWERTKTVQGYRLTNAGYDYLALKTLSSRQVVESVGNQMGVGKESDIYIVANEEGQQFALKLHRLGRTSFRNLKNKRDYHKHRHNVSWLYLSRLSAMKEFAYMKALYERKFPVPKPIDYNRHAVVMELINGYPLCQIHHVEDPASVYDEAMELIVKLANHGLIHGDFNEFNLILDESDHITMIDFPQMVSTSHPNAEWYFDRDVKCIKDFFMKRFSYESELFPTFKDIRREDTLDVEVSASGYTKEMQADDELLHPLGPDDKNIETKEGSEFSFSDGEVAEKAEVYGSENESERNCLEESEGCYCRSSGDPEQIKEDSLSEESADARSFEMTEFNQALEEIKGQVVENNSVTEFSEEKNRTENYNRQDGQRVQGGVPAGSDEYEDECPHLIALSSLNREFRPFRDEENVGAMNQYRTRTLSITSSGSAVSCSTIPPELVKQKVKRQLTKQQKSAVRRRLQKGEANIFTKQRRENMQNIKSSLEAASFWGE
row,ΔTm,SMILES
1,0.4 °C,CC(C)n1cnc2c(NCc3ccccc3)nc(NCCCO)nc21
2,3.1 °C,Cn1cc(C2=C(c3cn(CCCSC(=N)N)c4ccccc34)C(=O)NC2=O)c2ccccc21
3,-0.6 °C,COC1=C2C[C@@H](C)C[C@H](OC)[C@H](O)[C@@H](C)/C=C(\C)[C@H](OC(N)=O)[C@@H](OC)/C=C\C=C(/C)C(=O)NC(=CC1=O)C2=O

# Biological target: Ribosomal protein S6 kinase alpha-3 (Homo sapiens) (UniProt P51812)
# Sequence (P51812 whole entry): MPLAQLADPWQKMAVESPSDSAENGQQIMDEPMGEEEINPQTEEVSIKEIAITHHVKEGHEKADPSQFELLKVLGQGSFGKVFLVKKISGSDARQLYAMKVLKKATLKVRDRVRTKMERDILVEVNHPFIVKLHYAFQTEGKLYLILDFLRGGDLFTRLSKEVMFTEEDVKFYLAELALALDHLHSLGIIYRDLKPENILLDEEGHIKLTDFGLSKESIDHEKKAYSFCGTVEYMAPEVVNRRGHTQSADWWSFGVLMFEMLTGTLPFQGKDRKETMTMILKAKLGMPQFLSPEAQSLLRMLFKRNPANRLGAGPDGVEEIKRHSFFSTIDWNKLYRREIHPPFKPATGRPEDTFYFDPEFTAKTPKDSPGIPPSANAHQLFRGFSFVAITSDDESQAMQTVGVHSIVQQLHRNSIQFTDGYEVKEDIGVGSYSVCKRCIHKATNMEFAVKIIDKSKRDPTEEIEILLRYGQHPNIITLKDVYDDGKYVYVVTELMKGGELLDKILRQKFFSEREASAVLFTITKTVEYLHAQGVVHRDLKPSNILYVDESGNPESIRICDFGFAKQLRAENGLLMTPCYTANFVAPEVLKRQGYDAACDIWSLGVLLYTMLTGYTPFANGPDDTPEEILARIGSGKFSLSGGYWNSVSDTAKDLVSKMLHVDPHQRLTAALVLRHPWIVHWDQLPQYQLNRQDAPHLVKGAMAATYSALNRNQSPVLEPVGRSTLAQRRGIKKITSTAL
row,ΔTm,SMILES
1,1 °C,CC(C)n1cnc2c(NCc3ccccc3)nc(NCCCO)nc21
2,10 °C,Cn1cc(C2=C(c3cn(CCCSC(=N)N)c4ccccc34)C(=O)NC2=O)c2ccccc21
3,0.2 °C,COC1=C2C[C@@H](C)C[C@H](OC)[C@H](O)[C@@H](C)/C=C(\C)[C@H](OC(N)=O)[C@@H](OC)/C=C\C=C(/C)C(=O)NC(=CC1=O)C2=O

# Biological target: STE20-like serine/threonine-protein kinase (Homo sapiens) (UniProt Q9H2G2)
# Sequence (Q9H2G2 whole entry, looked up): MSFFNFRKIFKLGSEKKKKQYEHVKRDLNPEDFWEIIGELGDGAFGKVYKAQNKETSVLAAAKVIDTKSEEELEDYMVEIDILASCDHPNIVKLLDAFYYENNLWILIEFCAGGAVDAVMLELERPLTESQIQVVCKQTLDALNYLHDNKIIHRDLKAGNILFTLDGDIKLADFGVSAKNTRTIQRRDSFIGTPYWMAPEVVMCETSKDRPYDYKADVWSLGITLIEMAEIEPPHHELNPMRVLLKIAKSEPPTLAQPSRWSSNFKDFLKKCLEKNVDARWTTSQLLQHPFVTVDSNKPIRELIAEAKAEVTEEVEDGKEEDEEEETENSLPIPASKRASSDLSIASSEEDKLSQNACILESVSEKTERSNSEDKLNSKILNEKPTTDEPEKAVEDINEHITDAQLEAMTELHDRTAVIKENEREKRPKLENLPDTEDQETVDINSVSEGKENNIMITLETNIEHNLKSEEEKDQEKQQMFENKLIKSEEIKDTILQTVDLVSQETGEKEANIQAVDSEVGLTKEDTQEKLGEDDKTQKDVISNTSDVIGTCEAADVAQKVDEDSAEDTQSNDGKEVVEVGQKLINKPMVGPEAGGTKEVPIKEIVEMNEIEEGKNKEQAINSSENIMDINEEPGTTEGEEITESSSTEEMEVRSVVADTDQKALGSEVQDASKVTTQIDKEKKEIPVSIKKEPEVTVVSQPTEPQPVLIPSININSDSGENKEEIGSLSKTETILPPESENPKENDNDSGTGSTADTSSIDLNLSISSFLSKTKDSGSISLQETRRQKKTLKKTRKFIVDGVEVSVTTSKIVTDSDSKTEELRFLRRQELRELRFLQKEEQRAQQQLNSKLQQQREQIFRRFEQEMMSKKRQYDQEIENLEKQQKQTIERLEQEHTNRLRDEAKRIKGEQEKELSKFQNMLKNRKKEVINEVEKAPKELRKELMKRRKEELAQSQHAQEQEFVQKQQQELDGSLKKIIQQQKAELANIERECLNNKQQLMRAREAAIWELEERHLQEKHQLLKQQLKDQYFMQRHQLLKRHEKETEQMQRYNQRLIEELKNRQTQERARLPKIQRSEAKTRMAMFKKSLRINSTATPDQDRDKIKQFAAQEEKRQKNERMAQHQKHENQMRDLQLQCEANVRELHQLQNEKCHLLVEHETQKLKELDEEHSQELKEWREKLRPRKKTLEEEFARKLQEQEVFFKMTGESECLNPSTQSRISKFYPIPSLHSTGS
row,ΔTm,SMILES
1,0.4 °C,CC(C)n1cnc2c(NCc3ccccc3)nc(NCCCO)nc21
2,10.6 °C,Cn1cc(C2=C(c3cn(CCCSC(=N)N)c4ccccc34)C(=O)NC2=O)c2ccccc21
3,1.7 °C,COC1=C2C[C@@H](C)C[C@H](OC)[C@H](O)[C@@H](C)/C=C(\C)[C@H](OC(N)=O)[C@@H](OC)/C=C\C=C(/C)C(=O)NC(=CC1=O)C2=O

# Biological target: TRAF2 and NCK-interacting protein kinase (Homo sapiens) (UniProt Q9UKE5)
row,ΔTm,SMILES
1,0.4 °C,CC(C)n1cnc2c(NCc3ccccc3)nc(NCCCO)nc21
2,3.8 °C,Cn1cc(C2=C(c3cn(CCCSC(=N)N)c4ccccc34)C(=O)NC2=O)c2ccccc21
3,-0.4 °C,COC1=C2C[C@@H](C)C[C@H](OC)[C@H](O)[C@@H](C)/C=C(\C)[C@H](OC(N)=O)[C@@H](OC)/C=C\C=C(/C)C(=O)NC(=CC1=O)C2=O

# Biological target: T4, Serine/threonine-protein kinase VRK3 (Homo sapiens) (UniProt Q8IV63)
# T4 sequence (whole entry): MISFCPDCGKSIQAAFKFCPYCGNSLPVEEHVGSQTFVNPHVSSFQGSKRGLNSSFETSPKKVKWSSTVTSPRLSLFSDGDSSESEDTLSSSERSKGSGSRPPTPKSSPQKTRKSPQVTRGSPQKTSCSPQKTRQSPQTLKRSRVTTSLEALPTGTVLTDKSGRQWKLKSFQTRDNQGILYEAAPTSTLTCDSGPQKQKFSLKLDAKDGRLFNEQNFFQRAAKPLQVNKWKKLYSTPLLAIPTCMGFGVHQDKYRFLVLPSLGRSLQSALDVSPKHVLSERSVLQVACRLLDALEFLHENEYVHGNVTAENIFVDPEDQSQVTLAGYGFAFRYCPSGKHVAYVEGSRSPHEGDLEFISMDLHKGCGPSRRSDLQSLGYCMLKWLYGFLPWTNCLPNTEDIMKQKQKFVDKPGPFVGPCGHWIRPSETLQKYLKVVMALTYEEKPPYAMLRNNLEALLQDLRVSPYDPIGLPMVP
row,ΔTm,SMILES
1,-0.3 °C,CC(C)n1cnc2c(NCc3ccccc3)nc(NCCCO)nc21
2,0.8 °C,Cn1cc(C2=C(c3cn(CCCSC(=N)N)c4ccccc34)C(=O)NC2=O)c2ccccc21
3,-0.7 °C,COC1=C2C[C@@H](C)C[C@H](OC)[C@H](O)[C@@H](C)/C=C(\C)[C@H](OC(N)=O)[C@@H](OC)/C=C\C=C(/C)C(=O)NC(=CC1=O)C2=O

# — ChEMBL document CHEMBL1145498, “A systematic interaction map of validated kinase inhibitors with Ser/Thr kinases” (Proc Natl Acad Sci U S A, 2007)
